From patent US20080280891A1, “Anti-cancer agents and uses thereof” (Locus Pharmaceuticals, Inc., priority 2006, published 2008)

Key:
[1] = tested on: NCI-H522 non small cell lung cancer cells; assay: Cell cycle assay (Example 164), G2/M block in NCI-H522 cells; format: cell-based; conditions: Homo sapiens, 0.1 μM, 24 h, flow cytometry (PI)
Protocol: (§1) The adherent MCF-7 breast cancer cells and NCI-H522 non small cell lung cancer cells were grown and maintained in EMEM cell culture media containing 10% fetal calf serum.
(§2) Cells were allowed to adhere for 24 hrs. After adherence, cell culture media was changed to that containing 0.5% FCS. Thirty minutes post-media change, test compounds were added at a concentration of either 1.0 or 0.1 μM (as specified in the Tables). Twenty-four hours after test agent addition, cells were analyzed for cell cycle status as described below.
(§3) Cell cycle status was analyzed by flow cytometry. Briefly, cells were collected and washed with FACs buffer (Pharmingen) and resuspended and fixed in 1 mL of 80% ethanol for 1 hr. Cells were washed with FACs buffer and resuspended in propidium iodide(PI)/RNase staining buffer (Pharmingen). PI is a fluorescent dye that labels nucleic acids such as DNA. The fluorescence within a cell (in the presence of PI) is proportional to the amount of DNA within a cell. The cell content of DNA is an indicator of status in the cell cycle. […] Cells in the S phase have DNA content that lies between these extremes.
(§4) For testing of cell cycle effects of test agents the percentage of cells within the G1 and G2/M phase were measured.

[2] = tested on: MCF-7 breast cancer cells; assay: Cell cycle assay (Example 164), G2/M block in MCF-7 cells; format: cell-based; conditions: for activation at 0.1 µM / MCF-7 G2/M Block 1 μM: 24 h, flow cytometry (PI); for activation at 0.1 µM: Table 4; for MCF-7 G2/M Block 1 μM: Table 3
Protocol: as §1, §2, §3, §4

Row | IC50 ([2]; Homo sapiens, MCF7, MCF-7, footnotes * and ** of Table 4, read-out: IC50 (footnote mark in column MCF-7 G2/M Block)) | Structure (SMILES) | activation at 0.1 µM ([1]; Table 4) | activation at 0.1 µM ([2]; Homo sapiens, MCF7) | activation at 0.1 µM ([1]; Table 3) | MCF-7 G2/M Block 1 μM [2]
1 |  | CS(=O)(=O)Nc1cc(-c2nc3ccccc3o2)cc(-c2cccc3[nH]ccc23)c1 [N-[3-Benzoxazol-2-yl-5-(1H-indol-4-yl)-phenyl]-methanesulfonamide] | ≥ 50% | ≥ 50% |  | 
2 |  | CS(=O)(=O)Nc1cc(-c2ccc3c(c2)OCO3)cc(-c2cccc3[nH]ccc23)c1 [N-[3-benzo[1,3]dioxol-5-yl-5-(1H-indol-4-yl)-phenyl]-methanesulfonamide] | ≥ 50% | ≥ 50% |  | 
3 |  | CS(=O)(=O)Nc1cc(-c2ccnc(N)n2)cc(-c2cccc3[nH]ccc23)c1 [N-[3-(2-Amino-pyrimidin-4-yl)-5-(1H-indol-4-yl)-phenyl]-methanesulfonamide] | ≥ 50% | ≥ 50% |  | 
4 |  | CC(=O)Nc1cc(-c2ccc(F)cc2F)cc(-c2cccc3[nH]ccc23)c1 [N-[5-(1H-Indol-4-yl)-2′,4′-difluoro-biphenyl-3-yl]-acetamide] | ≥ 50% | ≥ 50% |  | 
5 |  | Cc1cc(C(=O)c2cc(NS(C)(=O)=O)cc(-c3cccc4[nH]ccc34)c2)cc(N2CCOCC2)n1 [N-[3-(1H-Indol-4-yl)-5-(2-methyl-6-morpholin-4-yl-pyridine-4-carbonyl)-phenyl]-methanesulfonamide] | ≥ 50% | ≥ 50% |  | 
6 |  | COC(=O)Nc1cc(Nc2ccc(C#N)nc2)cc(-c2cccc3[nH]ccc23)c1 [[3-(6-Cyano-pyridin-3-ylamino)-5-(1H-indol-4-yl)-phenyl]-carbamic acid methyl ester] |  |  | < 50% | Y (Y indicates a 50% or greater increase in the number of cells in the G2/M phase, as compared to control)
7 |  | COC(=O)Nc1cc(C(=O)c2cccnc2)cc(-c2ccc(F)c3[nH]ccc23)c1 [[3-(7-Fluoro-1H-indol-4-yl)-5-(pyridine-3-carbonyl)-phenyl]-carbamic acid methyl ester] | ≥ 50% | ≥ 50% |  | 
8 |  | COc1cc(C(=O)c2cc(NS(C)(=O)=O)cc(-c3cccc4[nH]ccc34)c2)ccn1 [N-[3-(1H-Indol-4-yl)-5-(2-methoxy-pyridine-4-carbonyl)-phenyl]-methanesulfonamide] |  |  | ≥ 50% | Y (Y indicates a 50% or greater increase in the number of cells in the G2/M phase, as compared to control)
9 |  | CS(=O)(=O)Nc1cc(C(=O)c2ccnc(N3CCOCC3)c2)cc(-c2cccc3[nH]ccc23)c1 [N-[3-(1H-Indol-4-yl)-5-(2-morpholin-4-yl-pyridine-4-carbonyl)-phenyl]-methanesulfonamide] | ≥ 50% | ≥ 50% |  | 
10 |  | CCc1ncccc1Nc1cc(O)cc(-c2cccc3[nH]ccc23)c1 [3-(2-Ethyl-pyridin-3-ylamino)-5-(1H-indol-4-yl)-phenol] |  |  | ≥ 50% | Y (Y indicates a 50% or greater increase in the number of cells in the G2/M phase, as compared to control)
11 |  | CS(=O)(=O)Nc1cc(-c2cccc([N+](=O)[O-])c2)cc(-c2cccc3[nH]ccc23)c1 [N-[5-(1H-indol-4-yl)-3′-nitro-biphenyl-3-yl]-methanesulfonamide] | ≥ 50% | ≥ 50% |  | 
12 |  | Nc1nccc(-c2cc(O)cc(-c3cccc4[nH]ccc34)c2)n1 [3-(2-Amino-pyrimidin-4-yl)-5-(1H-indol-4-yl)-phenol] | ≥ 50% | < 50% |  | 
13 | 0.5 to 5 µM | COC(=O)Nc1cc(C(=O)c2ccnc(Cl)c2)cc(-c2cccc3[nH]ccc23)c1 [[3-(2-Chloro-pyridine-4-carbonyl)-5-(1H-indol-4-yl)-phenyl]-carbamic acid methyl ester] | < 50% | < 50% |  | 
14 |  | COc1ccc(-c2cc(NS(C)(=O)=O)cc(-c3cccc4[nH]ccc34)c2)cn1 [N-[3-(1H-Indol-4-yl)-5-(6-methoxy-pyridin-3-yl)-phenyl]-methanesulfonamide] | ≥ 50% | ≥ 50% |  | 
15 |  | COC(=O)Nc1cc(-c2nc3ccccc3o2)cc(-c2cccc3[nH]ccc23)c1 [[3-Benzoxazol-2-yl-5-(1H-indol-4-yl)-phenyl]-carbamic acid methyl ester] | ≥ 50% | ≥ 50% |  | 
16 |  | COC(=O)Nc1cc(C(=O)c2cc(C)nc(N3CCOCC3)c2)cc(-c2cccc3[nH]ccc23)c1 [[3-(1H-Indol-4-yl)-5-(2-methyl-6-morpholin-4-yl-pyridine-4-carbonyl)-phenyl]-carbamic acid methyl ester] | ≥ 50% | ≥ 50% |  | 
17 |  | COc1ccc(-c2cc(NC(C)=O)cc(-c3cccc4[nH]ccc34)c2)cn1 [N-[3-(1H-Indol-4-yl)-5-(6-methoxy-pyridin-3-yl)-phenyl]-acetamide] | ≥ 50% | ≥ 50% |  | 
18 |  | COC(=O)Nc1cc(C(=O)c2ccnc(OC)c2)cc(-c2cccc3[nH]ccc23)c1 [[3-(1H-Indol-4-yl)-5-(2-methoxy-pyridine-4-carbonyl)-phenyl]-carbamic acid methyl ester] | < 50% | ≥ 50% |  | 
19 |  | CC(=O)Nc1cc(C(=O)c2ccnc(N(C)C)c2)cc(-c2cccc3[nH]ccc23)c1 [N-[3-(2-Dimethylamino-pyridine-4-carbonyl)-5-(1H-indol-4-yl)-phenyl]-acetamide] | ≥ 50% | ≥ 50% |  | 
20 |  | CS(=O)(=O)Nc1cc(-c2cc(C(F)(F)F)ccc2F)cc(-c2cccc3[nH]ccc23)c1 [N-[2′-fluoro-5-(1H-indol-4-yl)-5′-trifluoromethyl-biphenyl-3-yl]-methanesulfonamide] | ≥ 50% | ≥ 50% |  | 
21 |  | CC(=O)Nc1cc(C(=O)c2cc(C)nc(N(C)C)c2)cc(-c2cccc3[nH]ccc23)c1 [N-[3-(2-Dimethylamino-6-methyl-pyridine-4-carbonyl)-5-(1H-indol-4-yl)-phenyl]-acetamide] | ≥ 50% | ≥ 50% |  | 
22 |  | CC(=O)Nc1cc(-c2cccc(C)c2)cc(-c2cccc3[nH]ccc23)c1 [N-[5-(1H-Indol-4-yl)-3′-methyl-biphenyl-3-yl]-acetamide] | ≥ 50% | ≥ 50% |  | 
23 |  | CC(=O)Nc1cc(C(=O)c2cc(C)nc(N3CCOCC3)c2)cc(-c2cccc3[nH]ccc23)c1 [N-[3-(1H-Indol-4-yl)-5-(2-methyl-6-morpholin-4-yl-pyridine-4-carbonyl)-phenyl]-acetamide] | ≥ 50% | ≥ 50% |  | 
24 |  | COC(=O)Nc1cc(-c2ccncc2)cc(-c2cccc3[nH]ccc23)c1 [[3-(1H-Indol-4-yl)-5-pyridin-4-yl-phenyl]-carbamic acid methyl ester] | ≥ 50% | ≥ 50% |  | 
25 |  | COc1cc(C(=O)c2cc(NS(C)(=O)=O)cc(-c3cccc4[nH]ccc34)c2)cc(C)n1 [N-[3-(1H-Indol-4-yl)-5-(2-methoxy-6-methyl-pyridine-4-carbonyl)-phenyl]-methanesulfonamide] | ≥ 50% | ≥ 50% |  | 
26 |  | CC(=O)Nc1cc(-c2cccnc2)cc(-c2cccc3[nH]ccc23)c1 [N-[3-(1H-Indol-4-yl)-5-pyridin-3-yl-phenyl]-acetamide] | ≥ 50% | ≥ 50% |  | 
27 |  | CS(=O)(=O)Nc1cc(-c2ccnc(Cl)c2)cc(-c2cccc3[nH]ccc23)c1 [N-[3-(2-Chloro-pyridin-4-yl)-5-(1H-indol-4-yl)-phenyl]-methanesulfonamide] | ≥ 50% | ≥ 50% |  | 
